Data published in US20020032226A1, “Novel form of an oxazole compound” (priority 2000, published 2002).

Key:
[1] = heat stability to withstand spray drying; assay type: physicochemical; conditions: temperature range of from about 40° C. to about 100° C.
COX-2 = target: T1, COX-2 (Homo sapiens, UniProt P35354); assay: in vitro activity of COX-2; assay type: biochemical
T1 sequence (P35354 18-604): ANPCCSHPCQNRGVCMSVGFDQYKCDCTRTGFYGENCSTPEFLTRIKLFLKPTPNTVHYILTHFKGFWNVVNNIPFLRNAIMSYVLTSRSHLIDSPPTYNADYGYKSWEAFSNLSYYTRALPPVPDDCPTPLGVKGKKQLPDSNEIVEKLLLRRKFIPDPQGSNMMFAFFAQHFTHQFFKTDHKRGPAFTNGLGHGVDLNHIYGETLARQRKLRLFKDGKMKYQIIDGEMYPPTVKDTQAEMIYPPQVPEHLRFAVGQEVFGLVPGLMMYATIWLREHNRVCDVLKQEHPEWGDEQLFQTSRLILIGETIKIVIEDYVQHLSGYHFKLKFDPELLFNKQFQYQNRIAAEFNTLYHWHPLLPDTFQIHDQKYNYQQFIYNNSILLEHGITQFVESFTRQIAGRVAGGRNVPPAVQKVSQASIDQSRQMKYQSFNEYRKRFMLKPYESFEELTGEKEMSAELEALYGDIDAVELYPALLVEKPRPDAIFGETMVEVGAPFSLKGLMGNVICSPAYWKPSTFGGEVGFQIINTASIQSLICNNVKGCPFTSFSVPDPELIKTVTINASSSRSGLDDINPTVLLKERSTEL

[2] = Comparative dissolution of crystalline Form B and amorphous compound; assay type: physicochemical; conditions: 150 mg in 900 mL, 37° C., paddle speed 100 rpm, particle size 212-425 μm, HPLC
Experimental: Dissolution rates for the crystalline compound having Form B and the amorphous compound were determined and compared in two media: water and simulated intestinal fluid (SIF) minus pancreatin.
Initial materials were sieved and material with a particle size between 212 and 425 μm was used for the study. A 150 mg sample was added to 900 mL of fluid in a dissolution bath. A temperature of 37° C. and a paddle speed of 100 rpm were used for the dissolution. Samples were pulled at specific time points (5, 15, 30 120, and 240 min) and filtered through a 0.2 μm nylon filter. Samples were analyzed by HPLC.

| heat stability [1] | inhibits in vitro activity of COX-2 (COX-2) | SMILES | dissolution rate in simulated intestinal fluid (SIF) minus pancreatin [2] | dissolution rate in water [2] |
| --- | --- | --- | --- | --- |
| sufficient heat stability | – | Cc1nc(C2CCCCC2)c(-c2ccc(S(N)(=O)=O)c(F)c2)o1 [5-(4-aminosulfonyl-3-fluorophenyl)-4-cyclohexyl-2-methyloxazole] | – | – |
| – | nanomolar range | Cc1nc(C2CCCCC2)c(-c2ccc(S(N)(=O)=O)c(F)c2)o1 [amorphous compound, 5-(4-aminosulfonyl-3-fluorophenyl)-4-cyclohexyl-2-methyloxazole] | dissolved more rapidly | dissolved more rapidly |
| – | – | Cc1nc(C2CCCCC2)c(-c2ccc(S(N)(=O)=O)c(F)c2)o1 [crystalline compound having Form B, 5-(4-aminosulfonyl-3-fluorophenyl)-4-cyclohexyl-2-methyloxazole] | significantly slower dissolution rate than the amorphous form | significantly slower dissolution rate than the amorphous form |
